The values that follow come from ChEMBL document CHEMBL1138255, “Enantioselective synthesis and vanilloid activity evaluation of 1-beta-(p-methoxycinnamoyl)polygodial, an antinociceptive compound from Drymis winteri barks” (Bioorg Med Chem Lett, 2007).

Assay [1] addresses Transient receptor potential cation channel subfamily V member 1 (Homo sapiens) (UniProt Q8NER1). Put plainly: Activity at human TRPV1 receptor expressed in HEK293 cells assessed as calcium influx relative to ionomycin. It is filed as cell-based.
For assay [2] the target is unchanged. The assay can be described thus: Activity at human TRPV1 receptor expressed in HEK293 cells assessed as calcium influx in presence of 5-iodo-resiniferatoxin. It is filed as cell-based.

Chain of Transient receptor potential cation channel subfamily V member 1 (Homo sapiens) (Q8NER1 whole entry): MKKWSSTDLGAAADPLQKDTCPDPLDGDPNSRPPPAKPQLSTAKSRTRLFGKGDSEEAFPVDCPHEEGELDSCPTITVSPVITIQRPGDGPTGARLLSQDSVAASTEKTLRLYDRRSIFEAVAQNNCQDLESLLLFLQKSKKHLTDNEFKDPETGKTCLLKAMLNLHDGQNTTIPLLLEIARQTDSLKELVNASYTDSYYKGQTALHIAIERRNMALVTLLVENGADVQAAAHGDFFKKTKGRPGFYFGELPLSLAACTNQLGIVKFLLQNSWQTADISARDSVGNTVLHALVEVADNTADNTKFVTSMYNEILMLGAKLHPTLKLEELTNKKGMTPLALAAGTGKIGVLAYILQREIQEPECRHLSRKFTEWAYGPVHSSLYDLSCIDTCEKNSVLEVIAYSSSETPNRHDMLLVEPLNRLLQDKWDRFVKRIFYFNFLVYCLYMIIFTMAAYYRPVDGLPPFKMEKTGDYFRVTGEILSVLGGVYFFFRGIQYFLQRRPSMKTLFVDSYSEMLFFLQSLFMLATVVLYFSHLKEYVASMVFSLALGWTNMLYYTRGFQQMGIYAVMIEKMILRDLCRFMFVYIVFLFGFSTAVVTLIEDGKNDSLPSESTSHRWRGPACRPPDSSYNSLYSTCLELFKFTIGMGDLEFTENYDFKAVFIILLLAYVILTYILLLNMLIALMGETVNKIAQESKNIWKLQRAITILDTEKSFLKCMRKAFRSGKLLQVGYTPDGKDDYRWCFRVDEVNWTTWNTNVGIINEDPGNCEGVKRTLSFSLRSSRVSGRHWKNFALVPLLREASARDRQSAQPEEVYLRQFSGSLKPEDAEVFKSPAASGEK

Turning to `COc1ccc(/C=C/C(=O)O[C@@H]2CCC(C)(C)C3CC=C(CO)[C@H](CO)[C@]32C)cc1` (some centres undefined), the Activity in assay [1] was 0%.

`CC1(C)CC[C@@H](O)[C@@]2(C)C1CC=C(C=O)[C@@H]2C=O` (some centres undefined): the Activity in assay [1] came to 0%.

With `COc1ccc(/C=C/C(=O)O[C@@H]2CCC(C)(C)C3CC=C(C=O)[C@H](C=O)[C@]32C)cc1` (some centres undefined), the figures for the Activity in assay [1] and in assay [2] were 40.4% and 22%, respectively.
